In patent US12202790B2, “Sulfonamide derivatives having selective Nox inhibiting activity” (GLUCOX BIOTECH AB, priority 2018, dated 2025):

Legend:
[1] = tested on: rat lens epithelial explants; assay: TGFβ-induced lens epithelial to mesenchymal transition (EMT) in rat lens epithelial explants; format: cell-based; details: co-treatment with TGFβ, Example 11 2.4 μM, Example 17 0.3 μM; for progression of TGFβ-induced EMT: 5 days culture
Protocol: Ocular tissues were collected from postnatal-day-21 albino Wistar rats (Rattus norvegicus) that were sacrificed by asphyxiation and subsequent cervical dislocation.
(§1) Lens epithelial explants were prepared as previously described (Wang Q, et al., Investigative ophthalmology & visual science. 2010; 51(7):3599-610) and cultured in Medium 199 (M199) with Earle's salts (Life Technologies, USA), supplemented with 50 μg/mL L-glutamine, 50 IU/mL penicillin/50 μg/mL streptomycin (Thermo Scientific, USA), 2.5 μg/mL Amphostat B (Thermo Scientific, USA) and 0.1% bovine serum albumin (BSA) (Sigma, USA). M199 was equilibrated at 37° C., 5% CO2. To induce EMT, recombinant TGF-β2 was added to media in each culture dish at a working concentration of […] (R&D Systems, USA). Prior to the addition of TGF-β2, some explants were pre-treated for 30 minutes with Example 11 or Example 17, at working concentrations of 2.4 μM and 0.3 μM, respectively. The progression of EMT in live cells was observed and captured using phase-contrast microscopy (Olympus CK2, Japan) and a digital camera (Leica DFC-280, Germany). Percentage cell loss quantification was performed using the thresholding function of ImageJ (NIH), such that cells could be distinguished from bare lens capsule.

[2] = tested on: rat lens epithelial explants; assay: qRT-PCR gene expression analysis in TGFβ-treated rat lens epithelial explants; format: cell-based; details: 48 hours of culture, Example 11 2.4 μM, Example 17 0.3 μM; for aSMA expression (mRNA): Example 17 at a higher degree than Example 11
Protocol: as §1
Quantitative RT-PCR (qRT-PCR) gene expression analysis was performed as previously described (Shu D, et al., Investigative ophthalmology & visual science. 2017; 58(2):781-96.).
For data analysis, the 2^-ΔΔCt method was used to estimate the relative fold change in gene expression. Using the 2^-ΔΔCt method, the gene of interest was quantified relative to, firstly, the housekeeping gene, GAPDH and, secondly, to relative gene expression in untreated explants.

Hippocampal brain slices = assay: In vitro stroke model: hippocampal brain slices subjected to hypoxia and glucose deprivation; format: cell-based; details: hypoxia and glucose deprivation 5 hours, viability after 24 hours of culture
Protocol: (§2) FIG. 4 is a bar chart showing cell viability (in % of basal cell viability) of hippocampal brain slices subjected to hypoxia and starvation for 5 h and then cultured for 24 h in the absence (OGD) or presence of Example 11 at a concentration of 0.3 μM, 3 μM, or 10 μM. Basal=no hypoxia or starvation, cells cultured in the presence of culture medium only. OGD=5 h of hypoxia or starvation, cells cultured in the presence of culture medium only.
as §2, with “FIG. 5” for “FIG. 4”, “Example 17” for “Example 11”, “of 0.3,” for “of 0.3 μM,”, “3” for “3 μM,”
Hippocampal brain slices and human brain micro-vascular endothelial cells were subjected to hypoxia and glucose deprivation (starvation) for 5 hours and were tested for viability after 24 hours of culture in the presence of Example 11 or Example 17 at different concentrations. Additionally, human brain micro-vascular endothelial cells were subjected to hypoxia and glucose deprivation (starvation) for 6 hours and were tested for viability after 24 hours of culture in the presence of Example 44 at various concentrations.

Sprague-Dawley rats = assay: Streptozotocin rat model of diabetic retinopathy; format: in vivo; details: 10 mg/ml eye drops for two weeks, STZ diabetic rats
Protocol: Animals were maintained on a 12 h light-dark cycle, at 22-25° C. Food and water were available ad libitum. Diabetes was induced by a single dose of streptozotocin (STZ, 70 mg/kg, ip, Sigma-Aldrich, Germany) dissolved in sodium citrate (0.1M) buffer (diabetic group) after a fasting period of 8-12 hours. Animals with blood glucose levels>350 mg/d1, after 72 hours post-STZ injection were considered diabetic. Both male and female Sprague-Dawley rats were used in the study. Three experimental groups were employed, namely Control (n=6), Diabetic (n=7), and Diabetic-treated group (n=6). Example 17 (10 mg/ml) dissolved in DMSO was administered as eye drops, for two weeks, starting two (2) days after STZ administration. Animals were euthanized 24 hours after the last treatment, and their eyes were removed. […]
Antibodies raised against the macroglia marker glial fibrillary acidic protein (GFAP) were employed. Quantification using the public domain ImageJ 1.43m software was employed for the mean gray value [integrated density (fluorescence density)/delineated area] calculated and expressed as a percentage of the mean gray value of the control. Statistical analysis of the data was performed using GraphPad Prism v5.0 (San Diego, Calif., USA) and differences between groups were evaluated by one-way analysis of variance (ANOVA) with Neuman-Keuls. […]

Human islet cells = assay: Effects on human islet cell viability; format: cell-based; details: 48 h, compound 1 μM
Protocol: Human islet cells were incubated at control condition, with the cytokines IL-1β (20 ng/ml)+IFN-γ (20 ng/ml), or with palmitate (1.5 mM+2% BSA)+high glucose (20 mM) (PH) for 2 days with or without Nox1 inhibitor ML-171 (2 μM), Nox2 inhibitor Phos-I2 (2 μM) or Example 17 (1 μM). Islets were photographed in an inverted fluorescence microscope and the intensities of red (PI) and blue (Bisbenzimide) signals were quantified using Image J software. Results are indicated as mean±S.E.M for 7 human islet donors.

In the case of `Cc1ccccc1CCNS(=O)(=O)c1c(C)cccc1Cl` [Example 11, 2-chloro-6-methyl-N-[2-(2-methylphenyl)ethyl]benzene-1-sulfonamide], the “progression of TGFβ-induced EMT” value [1] is reported as “a similar effect was obtained”, the “morphology of remaining cells by day 5” value [1] is reported as “some of the remaining cells appeared epithelial-like” and the “TGFβ-driven upregulation of Col1A and Fn (mRNA)” value [2] is reported as “downregulate the TGFβ-driven upregulation of Col1A and Fn”. For the same compound, the “aSMA expression (mRNA)” value [2] was “downregulate aSMA expression” and the “neuroprotective effect (cell viability)” value (Hippocampal brain slices) was “neuroprotective effect”.

`Cc1ccccc1CCNS(=O)(=O)c1c(Cl)cc(Br)cc1Cl` [Example 17, 4-bromo-2,6-dichloro-N-[2-(2-methylphenyl)ethyl]benzene-1-sulfonamide] was tested, and the “GFAP immunoreactivity in retina” value (Sprague-Dawley rats) was “attenuated the diabetes induced increase in GFAP immunoreactivity”, the “progression of TGFβ-induced EMT” value [1] was “appeared to delay the progression of EMT” and the “morphology of remaining cells by day 5” value [1] was “some of the remaining cells appeared epithelial-like”. The “human islet cell death with cytokines” value (Human islet cells; IL-1β (20 ng/ml)+IFN-γ (20 ng/ml)) was “protected both against cytokines and high glucose+palmitate”, the “human islet cell death with high glucose+palmitate” value (Human islet cells; palmitate (1.5 mM)+high glucose (20 mM)) was “protected both against cytokines and high glucose+palmitate” and the “TGFβ-driven upregulation of Col1A and Fn (mRNA)” value [2] was “downregulate the TGFβ-driven upregulation of Col1A and Fn”. The “aSMA expression (mRNA)” value [2] was “downregulate aSMA expression” and the “neuroprotective effect (cell viability)” value (Hippocampal brain slices) was “neuroprotective effect”.
